Test results: patent US10004732B2 (Novartis AG, priority 2014, dated 2018)

Tests used:
mTOR = mTOR (Homo sapiens, UniProt P42345); assay: Lanthascreen kinase binding assay, assay G; conditions: read-out: Assay G mTOR IC50
Description: Lanthascreen™ Kinase Binding Assay for mTOR (G)
Binding of an inhibitor to the kinase competes for binding with the tracer, resulting in a loss of FRET.
50 nL of compound dilutions were dispensed onto white 384-well small volume polystyrene plate.

PI 4-kinase beta = PI 4-kinase beta (Homo sapiens, UniProt Q9UBF8); assay: Kinase Glo Luminescent Kinase Assay (Kglo), assay D; assay type: biochemical; conditions: read-out: Assay D PI4Kβ IC50
PI 3-kinase alpha = PI 3-kinase alpha (Homo sapiens, UniProt P42336); assay: Kinase Glo Luminescent Kinase Assay (Kglo), assay A; assay type: biochemical; conditions: read-out: Assay A PI3Kα IC50
PI 3-kinase gamma = PI 3-kinase gamma (Homo sapiens, UniProt P48736); assay: TR-FRET Adapta assay, assay E; assay type: biochemical; conditions: read-out: Assay E PI3Kγ IC50
Chain of PI 3-kinase gamma (P48736 whole entry): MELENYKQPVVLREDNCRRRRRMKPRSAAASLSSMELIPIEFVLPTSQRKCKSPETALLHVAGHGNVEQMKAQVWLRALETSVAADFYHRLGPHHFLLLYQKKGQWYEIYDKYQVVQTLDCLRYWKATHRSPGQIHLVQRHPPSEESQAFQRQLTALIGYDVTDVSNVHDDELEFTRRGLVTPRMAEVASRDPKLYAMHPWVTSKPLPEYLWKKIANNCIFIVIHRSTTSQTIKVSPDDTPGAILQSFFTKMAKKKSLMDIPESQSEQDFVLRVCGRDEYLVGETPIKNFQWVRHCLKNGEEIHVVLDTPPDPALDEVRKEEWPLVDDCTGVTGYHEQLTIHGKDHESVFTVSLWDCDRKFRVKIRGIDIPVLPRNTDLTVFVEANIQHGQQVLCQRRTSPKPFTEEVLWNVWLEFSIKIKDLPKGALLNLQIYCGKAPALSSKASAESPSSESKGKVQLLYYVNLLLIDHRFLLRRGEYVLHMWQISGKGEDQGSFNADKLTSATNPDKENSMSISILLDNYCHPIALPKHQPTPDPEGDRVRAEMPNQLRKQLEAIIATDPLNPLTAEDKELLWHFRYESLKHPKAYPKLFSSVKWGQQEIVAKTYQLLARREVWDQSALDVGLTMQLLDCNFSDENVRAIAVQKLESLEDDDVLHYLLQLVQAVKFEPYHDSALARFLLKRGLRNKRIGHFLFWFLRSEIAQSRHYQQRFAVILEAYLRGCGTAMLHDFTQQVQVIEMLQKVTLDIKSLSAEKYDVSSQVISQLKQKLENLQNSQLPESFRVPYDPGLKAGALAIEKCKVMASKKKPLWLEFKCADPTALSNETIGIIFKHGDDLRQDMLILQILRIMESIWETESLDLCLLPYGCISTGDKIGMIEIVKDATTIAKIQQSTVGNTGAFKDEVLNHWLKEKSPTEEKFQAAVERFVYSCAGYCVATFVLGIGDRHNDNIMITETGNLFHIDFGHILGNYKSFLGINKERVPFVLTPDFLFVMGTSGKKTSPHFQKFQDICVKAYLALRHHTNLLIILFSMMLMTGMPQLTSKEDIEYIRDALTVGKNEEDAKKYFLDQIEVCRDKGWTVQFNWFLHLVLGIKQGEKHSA

PI 3-kinase delta = PI 3-kinase delta (Homo sapiens, UniProt O00329); assay: TR-FRET Adapta assay, assay F; conditions: read-out: Assay F PI3Kδ IC50
Chain of PI 3-kinase delta (O00329 whole entry): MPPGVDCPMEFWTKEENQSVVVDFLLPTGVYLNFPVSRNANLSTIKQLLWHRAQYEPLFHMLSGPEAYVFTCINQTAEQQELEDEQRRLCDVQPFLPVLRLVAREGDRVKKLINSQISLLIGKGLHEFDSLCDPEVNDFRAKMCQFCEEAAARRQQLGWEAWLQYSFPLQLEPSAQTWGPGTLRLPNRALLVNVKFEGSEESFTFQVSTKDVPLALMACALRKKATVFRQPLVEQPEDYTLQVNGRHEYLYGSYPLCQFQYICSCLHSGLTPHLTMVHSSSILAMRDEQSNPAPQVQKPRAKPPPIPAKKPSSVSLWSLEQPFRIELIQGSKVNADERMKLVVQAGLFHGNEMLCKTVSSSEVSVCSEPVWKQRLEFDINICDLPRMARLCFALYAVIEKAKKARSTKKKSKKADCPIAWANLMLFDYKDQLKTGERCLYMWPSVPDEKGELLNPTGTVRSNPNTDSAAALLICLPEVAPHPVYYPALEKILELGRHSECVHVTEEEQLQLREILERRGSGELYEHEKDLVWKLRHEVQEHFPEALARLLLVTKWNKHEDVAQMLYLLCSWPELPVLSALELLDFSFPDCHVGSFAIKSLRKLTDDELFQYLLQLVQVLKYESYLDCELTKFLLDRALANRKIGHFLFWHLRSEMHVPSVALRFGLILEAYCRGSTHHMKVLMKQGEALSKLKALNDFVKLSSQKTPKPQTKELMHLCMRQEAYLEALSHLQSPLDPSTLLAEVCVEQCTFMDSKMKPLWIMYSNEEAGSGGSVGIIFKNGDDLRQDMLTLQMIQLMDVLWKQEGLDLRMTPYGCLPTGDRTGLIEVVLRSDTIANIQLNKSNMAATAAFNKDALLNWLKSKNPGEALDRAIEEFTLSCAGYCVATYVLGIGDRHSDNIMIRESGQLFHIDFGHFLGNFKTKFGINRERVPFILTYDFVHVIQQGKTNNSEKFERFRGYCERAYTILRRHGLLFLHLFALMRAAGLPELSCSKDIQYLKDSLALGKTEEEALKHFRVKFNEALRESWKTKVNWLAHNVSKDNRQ
Chain of PI 3-kinase delta (P27986 461-568 partner): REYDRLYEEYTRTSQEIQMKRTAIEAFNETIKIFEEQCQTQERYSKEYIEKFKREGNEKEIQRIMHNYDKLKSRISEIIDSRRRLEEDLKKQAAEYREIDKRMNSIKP

Vps34 = Vps34 (Homo sapiens, UniProt Q8NEB9); assay: Kinase Glo Luminescent Kinase Assay (Kglo), assay C; assay type: biochemical; conditions: read-out: Assay C VPS34 IC50
Chain of Vps34 (Q8NEB9 whole entry, species assumed): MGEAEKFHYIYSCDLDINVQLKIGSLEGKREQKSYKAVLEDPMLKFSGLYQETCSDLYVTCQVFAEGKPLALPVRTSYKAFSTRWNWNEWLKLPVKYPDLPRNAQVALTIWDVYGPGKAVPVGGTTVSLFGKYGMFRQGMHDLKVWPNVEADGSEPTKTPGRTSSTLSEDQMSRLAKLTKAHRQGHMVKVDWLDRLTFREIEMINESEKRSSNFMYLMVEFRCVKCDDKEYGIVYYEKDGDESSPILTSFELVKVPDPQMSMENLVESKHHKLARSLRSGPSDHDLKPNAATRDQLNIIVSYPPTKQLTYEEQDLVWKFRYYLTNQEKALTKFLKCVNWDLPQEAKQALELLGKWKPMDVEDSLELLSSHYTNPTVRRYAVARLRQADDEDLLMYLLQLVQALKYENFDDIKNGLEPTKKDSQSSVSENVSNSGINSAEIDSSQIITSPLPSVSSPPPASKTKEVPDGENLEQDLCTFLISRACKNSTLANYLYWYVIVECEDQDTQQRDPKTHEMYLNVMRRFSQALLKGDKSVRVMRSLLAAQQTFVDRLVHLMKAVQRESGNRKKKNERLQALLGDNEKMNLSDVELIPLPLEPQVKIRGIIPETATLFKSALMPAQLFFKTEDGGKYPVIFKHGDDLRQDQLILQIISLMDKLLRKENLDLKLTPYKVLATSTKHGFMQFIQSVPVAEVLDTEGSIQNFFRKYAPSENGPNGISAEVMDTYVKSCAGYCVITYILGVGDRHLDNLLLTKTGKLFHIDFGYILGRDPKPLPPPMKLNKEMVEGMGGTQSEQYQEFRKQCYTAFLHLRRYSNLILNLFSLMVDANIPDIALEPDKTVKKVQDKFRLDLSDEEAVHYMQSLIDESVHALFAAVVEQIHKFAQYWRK

PI 3-kinase beta = PI 3-kinase beta (Homo sapiens, UniProt P42338); assay: Kinase Glo Luminescent Kinase Assay (Kglo), assay B; assay type: biochemical; conditions: read-out: Assay B PI3Kβ IC50
Chain of PI 3-kinase beta (P42338 whole entry): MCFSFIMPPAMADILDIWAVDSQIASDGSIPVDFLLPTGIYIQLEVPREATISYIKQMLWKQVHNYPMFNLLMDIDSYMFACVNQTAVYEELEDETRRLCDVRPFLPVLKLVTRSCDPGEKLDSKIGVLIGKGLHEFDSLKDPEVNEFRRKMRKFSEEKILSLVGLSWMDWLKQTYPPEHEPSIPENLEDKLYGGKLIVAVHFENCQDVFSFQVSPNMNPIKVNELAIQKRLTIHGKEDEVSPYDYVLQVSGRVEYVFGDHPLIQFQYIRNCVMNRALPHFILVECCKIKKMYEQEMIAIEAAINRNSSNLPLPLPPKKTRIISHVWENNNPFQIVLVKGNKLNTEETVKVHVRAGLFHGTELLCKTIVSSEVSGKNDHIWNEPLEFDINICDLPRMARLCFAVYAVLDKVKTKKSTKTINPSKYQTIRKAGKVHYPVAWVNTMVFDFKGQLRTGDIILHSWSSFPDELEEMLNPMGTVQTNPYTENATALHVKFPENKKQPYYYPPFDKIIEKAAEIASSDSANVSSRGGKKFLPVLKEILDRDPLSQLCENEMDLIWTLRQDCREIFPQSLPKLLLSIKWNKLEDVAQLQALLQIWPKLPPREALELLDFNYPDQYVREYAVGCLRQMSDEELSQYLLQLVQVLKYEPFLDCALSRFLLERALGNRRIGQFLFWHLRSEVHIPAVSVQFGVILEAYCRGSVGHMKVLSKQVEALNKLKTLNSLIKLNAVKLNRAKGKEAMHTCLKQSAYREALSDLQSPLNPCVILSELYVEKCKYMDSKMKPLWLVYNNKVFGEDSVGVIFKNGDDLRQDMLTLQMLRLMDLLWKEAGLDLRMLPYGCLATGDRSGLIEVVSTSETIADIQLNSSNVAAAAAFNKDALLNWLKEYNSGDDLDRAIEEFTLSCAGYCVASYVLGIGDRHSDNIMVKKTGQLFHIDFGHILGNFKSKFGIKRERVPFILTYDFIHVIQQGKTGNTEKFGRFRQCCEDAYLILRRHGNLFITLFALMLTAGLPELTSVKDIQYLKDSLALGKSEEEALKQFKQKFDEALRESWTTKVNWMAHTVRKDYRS
Chain of PI 3-kinase beta (P27986 461-568 partner): as the sequence (P27986 461-568 partner) above

Chain of PI 4-kinase beta (Q9UBF8 whole entry): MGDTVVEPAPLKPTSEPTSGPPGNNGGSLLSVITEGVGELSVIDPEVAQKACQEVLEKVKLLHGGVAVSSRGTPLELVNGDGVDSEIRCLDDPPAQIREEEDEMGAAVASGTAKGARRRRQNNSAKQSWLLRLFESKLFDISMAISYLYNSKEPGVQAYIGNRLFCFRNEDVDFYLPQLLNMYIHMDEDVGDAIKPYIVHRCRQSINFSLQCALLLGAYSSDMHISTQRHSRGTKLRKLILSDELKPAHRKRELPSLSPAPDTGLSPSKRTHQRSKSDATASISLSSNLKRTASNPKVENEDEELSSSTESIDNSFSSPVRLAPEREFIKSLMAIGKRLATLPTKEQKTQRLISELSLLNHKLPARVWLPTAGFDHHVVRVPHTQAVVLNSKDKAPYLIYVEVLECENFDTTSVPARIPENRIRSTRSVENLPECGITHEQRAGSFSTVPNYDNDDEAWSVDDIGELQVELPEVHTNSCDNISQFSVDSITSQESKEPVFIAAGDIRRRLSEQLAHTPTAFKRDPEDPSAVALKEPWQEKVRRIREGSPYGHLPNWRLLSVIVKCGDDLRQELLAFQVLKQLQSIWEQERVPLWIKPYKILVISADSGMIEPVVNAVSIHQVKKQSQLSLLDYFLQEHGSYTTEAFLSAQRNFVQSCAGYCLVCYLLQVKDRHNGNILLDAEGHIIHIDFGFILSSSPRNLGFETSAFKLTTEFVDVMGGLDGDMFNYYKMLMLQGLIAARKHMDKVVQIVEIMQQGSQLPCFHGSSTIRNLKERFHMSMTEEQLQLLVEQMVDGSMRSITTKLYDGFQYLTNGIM

Row | IC50 (mTOR) [nM] | IC50 (PI 4-kinase beta) [nM] | IC50 (PI 3-kinase alpha) [nM] | IC50 (PI 3-kinase gamma) [nM] | IC50 (PI 3-kinase delta) [nM] | IC50 (Vps34) [nM] | IC50 (PI 3-kinase beta) [nM] | SMILES
1 | > 9100 | > 9100 | 700 | 110 | 1200 | > 9100 | > 9100 | Cc1cc(-c2nc(-c3cc(S(=O)(=O)NCCN)ccc3C)cnc2N)ccn1 [Example 129.34, 3-(5-amino-6-(2-methylpyridin-4-yl)pyrazin-2-yl)-N-(2-aminoethyl)-4-methylbenzenesulfonamide]
2 | 4820 | > 9100 | 1480 | 508 | 2080 | > 9100 | > 9100 | Cc1ccc(S(=O)(=O)NCCC(C)(C)O)cc1-c1cnc(N)c(-c2cncnc2)n1 [Example 119.20]
3 | > 9100 | > 9100 | 1600 | 590 | 1600 | > 9100 | 1700 | Cc1cc(-c2nc(-c3cc(S(=O)(=O)NCCN(C)C)ccc3C)cnc2N)ccn1 [Example 129.26, 3-(5-amino-6-(2-methylpyridin-4-yl)pyrazin-2-yl)-N-(2-(dimethylamino)ethyl)-4-methylbenzenesulfonamide]
4 | > 10000 | > 10000 | 1700 | 320 | 5500 | > 10000 | 9200 | COCCCNS(=O)(=O)c1ccc(C)c(-c2cnc(N)c(-n3cncn3)n2)c1 [Example 127.10]
5 | > 10000 | 7100 | 1700 | 800 | > 10000 | > 10000 | 5900 | Cc1ccc(S(=O)(=O)NC(C)CO)cc1-c1cnc(N)c(-n2cncn2)n1 (centres unmarked) [Example 127.42]
6 | > 9100 | > 9100 | 1900 | 240 | 2100 | > 9100 | > 9100 | COC(C)(C)CNS(=O)(=O)c1ccc(C)c(-c2cnc(N)c(-c3ccnc(C)c3)n2)c1 [Example 129.15, 3-(5-amino-6-(2-methylpyridin-4-yl)pyrazin-2-yl)-N-(2-methoxy-2-methylpropyl)-4-methylbenzenesulfonamide]
7 | > 10000 | 5300 | 970 | 130 | 1700 | > 10000 | 5100 | Cc1ccc(S(=O)(=O)N[C@@H]2CCOC2)cc1-c1cnc(N)c(-n2cncn2)n1 [Example 127.20]
8 | 5600 | > 10000 | 840 | 32 | 2100 | > 10000 | 1400 | Cc1ccc(S(=O)(=O)NCC2(CO)CCOCC2)cc1-c1cnc(N)c(-n2cncn2)n1 [Example 127.50]
9 | > 9100 | > 9100 | 5400 | 41 | 1200 | > 9100 | > 9100 | Cc1cc(-c2nc(-c3cc(S(=O)(=O)NCC4CCN(C)C4)ccc3C)cnc2N)ccn1 (centres unmarked) [Example 129.30, 3-(5-amino-6-(2-methylpyridin-4-yl)pyrazin-2-yl)-4-methyl-N-((1-methylpyrrolidin-3-yl)methyl)benzenesulfonamide]
10 | 5900 | 5300 | 600 | 65 | 580 | > 10000 | 1900 | Cc1ccc(S(=O)(=O)NC2CCSC2=O)cc1-c1cnc(N)c(-n2cncn2)n1 (centres unmarked) [Example 127.51]
11 | 5000 | > 9100 | 190 | 69 | 430 | > 9100 | > 9100 | Cc1cc(-c2nc(-c3cc(S(=O)(=O)NCC4(O)CCCCC4)ccc3C)cnc2N)ccn1 [Example 129.4, 3-(5-amino-6-(2-methylpyridin-4-yl)pyrazin-2-yl)-N-((1-hydroxycyclohexyl)methyl)-4-methylbenzenesulfonamide]
